Experimental data as given in patent US9334264B2, “NAMPT inhibitors” (AbbVie Inc., priority 2012, dated 2016).
pIC50: −log10 of the molar value.

Legend:
[1] = target: NAMPT (human, recombinant, C-terminally His-tagged) (Homo sapiens, UniProt P43490); assay: Time-Resolved Fluorescence Resonance Energy Transfer (TR-FRET) Binding Assay of NAMPT; settings: absence of substrates; 6.8 nM NAMPT, 200 nM probe, equilibrated 3 hours
Experimental: Determination of the utility of compounds having Formula (I) as binders to and inhibitors of NAMPT was performed using Time-Resolved Fluorescence Resonance Energy Transfer (TR-FRET) binding assays.
Time-Resolved Fluorescence Resonance Energy Transfer (TR-FRET) Binding Assay of NAMPT
Test compounds were serially diluted (typically 11 half log dilutions) in neat DMSO to 50× final concentrations prior to dilution with assay buffer (50 mM HEPES (NaOH), pH 7.5, 100 mM NaCl, 10 mM MgCl2, 1 mM DTT, 1% Glycerol) to 3× and 6% DMSO. Six μL were transferred to 384-well low-volume plates (Owens Corning #3673). To this, 12 μL of a 1.5× solution containing enzyme, probe and antibody were added. Final concentrations in the 18 μL reactions were 1× assay buffer, 2% DMSO, 6.8 nM NAMPT (human, recombinant, C-terminally His-tagged), 200 nM probe (a potent nicotinamide-competitive inhibitor conjugated to Oregon Green 488) and 1 nM Tb-anti-His antibody (Invitrogen #PV5895). Reactions were equilibrated at room temperature for 3 hours prior to reading on an Envision multi-label plate reader (Perkin Elmer; Ex=337 nm, Em=520 and 495 nm). Time-resolved FRET ratios (Em520/Em495) were normalized to controls, plotted as a function of compound concentration and fit with the four-parameter logistic equation to determine IC50s.

[2] = target: NAMPT (Homo sapiens, UniProt P43490); assay: Time-Resolved Fluorescence Resonance Energy Transfer (TR-FRET) Binding Assay of NAMPT with PRPP; settings: 200 μM PRPP and 2.5 mM ATP; 2 nM NAMPT, 2 nM probe, equilibrated 16 hours
Chain of NAMPT (P43490 whole entry): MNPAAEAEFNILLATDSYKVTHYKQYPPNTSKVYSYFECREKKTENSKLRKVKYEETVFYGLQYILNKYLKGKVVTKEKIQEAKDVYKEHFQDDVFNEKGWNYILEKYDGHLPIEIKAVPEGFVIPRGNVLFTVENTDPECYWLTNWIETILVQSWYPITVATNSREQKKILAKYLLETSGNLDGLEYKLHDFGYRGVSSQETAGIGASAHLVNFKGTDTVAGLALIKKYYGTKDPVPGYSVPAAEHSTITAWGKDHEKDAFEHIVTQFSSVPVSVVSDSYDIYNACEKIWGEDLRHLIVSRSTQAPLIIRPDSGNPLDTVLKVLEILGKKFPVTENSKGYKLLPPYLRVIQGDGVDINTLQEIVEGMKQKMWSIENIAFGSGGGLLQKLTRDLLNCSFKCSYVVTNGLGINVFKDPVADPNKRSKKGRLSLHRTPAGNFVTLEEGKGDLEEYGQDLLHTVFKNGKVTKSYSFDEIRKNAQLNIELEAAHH
Experimental: Time-Resolved Fluorescence Resonance Energy Transfer (TR-FRET) Binding Assay of NAMPT with PRPP
Compound handling and data processing were identical to the assay in the absence of substrates (above). Final concentrations were 1× assay buffer, 2% DMSO, 2 nM NAMPT, 2 nM probe, 1 nM Tb-anti-His antibody (Invitrogen #PV5895), 200 μM PRPP and 2.5 mM ATP. Reactions were equilibrated for 16 hours prior to measurement to allow for potential enzymatic modification of test compounds.

Chain of NAMPT (human, recombinant, C-terminally His-tagged) (P43490 whole entry): as above

Row | pIC50 [1] | pIC50 [2] | SMILES
1 | < 5.00 | 8.11 | O=C(NCCCn1ccnc1)c1cnc(N(Cc2ccc(F)cc2)C(=O)C[n+]2ccccc2)s1 [Example 44, 1-{2-[(4-fluorobenzyl)(5-{[3-(1H-imidazol-1-yl)propyl]carbamoyl}-1,3-thiazol-2-yl)amino]-2-oxoethyl}pyridinium]
2 | 6.21 | 9.69 | CC(C)CC(=O)N(CCc1ccc(F)cc1)c1ncc(C(=O)NCCCn2ccnc2)s1 [Example 45, 2-{[2-(4-fluorophenyl)ethyl](3-methylbutanoyl)amino}-N-[3-(1H-imidazol-1-yl)propyl]-1,3-thiazole-5-carboxamide]
3 | 5.02 | 8.66 | CC(C)NC(=O)N(Cc1ccc(F)cc1)c1ncc(C(=O)NCCCn2ccnc2)s1 [Example 46, 2-[(4-fluorobenzyl)(propan-2-ylcarbamoyl)amino]-N-[3-(1H-imidazol-1-yl)propyl]-1,3-thiazole-5-carboxamide]
4 | 6.09 | 9.15 | CC(C)CC(=O)N(CCc1ccc(C#N)cc1)c1ncc(C(=O)NCCCn2ccnc2)s1 [Example 48, 2-{[2-(4-cyanophenyl)ethyl](3-methylbutanoyl)amino}-N-[3-(1H-imidazol-1-yl)propyl]-1,3-thiazole-5-carboxamide]
5 | 5.77 | 8.97 | N#Cc1ccc(CCN(C(=O)CC2CCOCC2)c2ncc(C(=O)NCCCn3ccnc3)s2)cc1 [Example 49, 2-{[2-(4-cyanophenyl)ethyl](tetrahydro-2H-pyran-4-ylacetyl)amino}-N-[3-(1H-imidazol-1-yl)propyl]-1,3-thiazole-5-carboxamide]
6 | 5.93 | 8.60 | CC(C)CC(=O)N(Cc1ccc(C#N)cc1)c1ncc(C(=O)NCCCn2ccnc2)s1 [Example 50, 2-[(4-cyanobenzyl)(3-methylbutanoyl)amino]-N-[3-(1H-imidazol-1-yl)propyl]-1,3-thiazole-5-carboxamide]
7 | < 5.00 | 8.31 | N#Cc1ccc(CN(C(=O)CC2CCOCC2)c2ncc(C(=O)NCCCn3ccnc3)s2)cc1 [Example 51, 2-[(4-cyanobenzyl)(tetrahydro-2H-pyran-4-ylacetyl)amino]-N-[3-(1H-imidazol-1-yl)propyl]-1,3-thiazole-5-carboxamide]
8 | 6.00 | 9.06 | N#Cc1ccc(CCN(C(=O)CC2CCOC2)c2ncc(C(=O)NCCCn3ccnc3)s2)cc1 (stereo not shown) [Example 52, 2-{[2-(4-cyanophenyl)ethyl](tetrahydrofuran-3-ylacetyl)amino}-N-[3-(1H-imidazol-1-yl)propyl]-1,3-thiazole-5-carboxamide]
9 | 5.60 | 6.49 | Cc1nccn1CCCNC(=O)c1cnc(N(Cc2ccc(F)cc2)C(=O)CC(C)C)s1 [Example 53, 2-[(4-fluorobenzyl)(3-methylbutanoyl)amino]-N-[3-(2-methyl-1H-imidazol-1-yl)propyl]-1,3-thiazole-5-carboxamide]
10 | 5.68 | 8.25 | Cc1cn(CCCNC(=O)c2cnc(N(Cc3ccc(F)cc3)C(=O)CC(C)C)s2)cn1 [Example 54, 2-[(4-fluorobenzyl)(3-methylbutanoyl)amino]-N-[3-(4-methyl-1H-imidazol-1-yl)propyl]-1,3-thiazole-5-carboxamide]
11 | < 5.00 | 5.50 | CC(C)CCN(Cc1ccccc1F)c1ncc(C(=O)NCCCn2ccnc2)s1 [Example 55, 2-[(2-fluorobenzyl)(3-methylbutyl)amino]-N-[3-(1H-imidazol-1-yl)propyl]-1,3-thiazole-5-carboxamide]
12 | 5.22 | 9.14 | CC(C)CCN(Cc1cccc(F)c1)c1ncc(C(=O)NCCCn2ccnc2)s1 [Example 56, 2-[(3-fluorobenzyl)(3-methylbutyl)amino]-N-[3-(1H-imidazol-1-yl)propyl]-1,3-thiazole-5-carboxamide]
13 | < 5.00 | 5.94 | CC(C)CCN(Cc1ccccc1Cl)c1ncc(C(=O)NCCCn2ccnc2)s1 [Example 57, 2-[(2-chlorobenzyl)(3-methylbutyl)amino]-N-[3-(1H-imidazol-1-yl)propyl]-1,3-thiazole-5-carboxamide]
14 | 5.76 | 6.09 | CC(C)CCN(Cc1cccc(Cl)c1)c1ncc(C(=O)NCCCn2ccnc2)s1 [Example 58, 2-[(3-chlorobenzyl)(3-methylbutyl)amino]-N-[3-(1H-imidazol-1-yl)propyl]-1,3-thiazole-5-carboxamide]

Second part, the compound before the results:

Row | SMILES | pIC50 [1] | pIC50 [2]
15 | CC(C)N1CCN(CC(=O)N(Cc2ccc(F)cc2)c2ncc(C(=O)NCCCn3ccnc3)s2)CC1 [Example 31, 2-[(4-fluorobenzyl){[4-(propan-2-yl)piperazin-1-yl]acetyl}amino]-N-[3-(1H-imidazol-1-yl)propyl]-1,3-thiazole-5-carboxamide] | 5.44 | 9.05
16 | O=CN1CCN(CC(=O)N(Cc2ccc(F)cc2)c2ncc(C(=O)NCCCn3ccnc3)s2)CC1 [Example 32, 2-{(4-fluorobenzyl)[(4-formylpiperazin-1-yl)acetyl]amino}-N-[3-(1H-imidazol-1-yl)propyl]-1,3-thiazole-5-carboxamide] | < 5.00 | 8.88
17 | O=C(NCCCn1ccnc1)c1cnc(N(Cc2ccc(F)cc2)C(=O)CN2CCN3CCCC3C2)s1 (stereo not shown) [Example 33, 2-[(4-fluorobenzyl)(hexahydropyrrolo[1,2-a]pyrazin-2(1H)-ylacetyl)amino]-N-[3-(1H-imidazol-1-yl)propyl]-1,3-thiazole-5-carboxamide] | 5.05 | 8.91
18 | O=C(NCCCn1ccnc1)c1cnc(N(Cc2ccc(F)cc2)C(=O)CN2CCN(CC3CC3)CC2)s1 [Example 34, 2-[{[4-(cyclopropylmethyl)piperazin-1-yl]acetyl}(4-fluorobenzyl)amino]-N-[3-(1H-imidazol-1-yl)propyl]-1,3-thiazole-5-carboxamide] | 5.12 | 9.30
19 | CCOCCN1CCN(CC(=O)N(Cc2ccc(F)cc2)c2ncc(C(=O)NCCCn3ccnc3)s2)CC1 [Example 35, 2-[{[4-(2-ethoxyethyl)piperazin-1-yl]acetyl}(4-fluorobenzyl)amino]-N-[3-(1H-imidazol-1-yl)propyl]-1,3-thiazole-5-carboxamide] | < 5.00 | 8.50
20 | C=CCN1CCN(CC(=O)N(Cc2ccc(F)cc2)c2ncc(C(=O)NCCCn3ccnc3)s2)CC1 [Example 37, 2-[(4-fluorobenzyl){[4-(prop-2-en-1-yl)piperazin-1-yl]acetyl}amino]-N-[3-(1H-imidazol-1-yl)propyl]-1,3-thiazole-5-carboxamide] | 5.32 | 9.27
21 | COCCCN1CCN(CC(=O)N(Cc2ccc(F)cc2)c2ncc(C(=O)NCCCn3ccnc3)s2)CC1 [Example 38, 2-[(4-fluorobenzyl){[4-(3-methoxypropyl)piperazin-1-yl]acetyl}amino]-N-[3-(1H-imidazol-1-yl)propyl]-1,3-thiazole-5-carboxamide] | 5.57 | 8.87
22 | CN(C)C1CCN(CC(=O)N(Cc2ccc(F)cc2)c2ncc(C(=O)NCCCn3ccnc3)s2)C1 (stereo not shown) [Example 39, 2-[{[3-(dimethylamino)pyrrolidin-1-yl]acetyl}(4-fluorobenzyl)amino]-N-[3-(1H-imidazol-1-yl)propyl]-1,3-thiazole-5-carboxamide] | 5.62 | 9.03
23 | O=C(NCCCn1ccnc1)c1cnc(N(Cc2ccc(F)cc2)C(=O)CN2CCOCC2)s1 [Example 40, 2-[(4-fluorobenzyl)(morpholin-4-ylacetyl)amino]-N-[3-(1H-imidazol-1-yl)propyl]-1,3-thiazole-5-carboxamide] | 5.66 | 8.70
24 | O=C(NCCCn1ccnc1)c1cnc(N(Cc2ccc(F)cc2)C(=O)CN2CCCC(O)C2)s1 (stereo not shown) [Example 41, 2-{(4-fluorobenzyl)[(3-hydroxypiperidin-1-yl)acetyl]amino}-N-[3-(1H-imidazol-1-yl)propyl]-1,3-thiazole-5-carboxamide] | 5.07 | 7.53
25 | O=C(NCCCn1ccnc1)c1cnc(N(Cc2ccc(F)cc2)C(=O)CN2CCN(CCO)CC2)s1 [Example 42, 2-[(4-fluorobenzyl){[4-(2-hydroxyethyl)piperazin-1-yl]acetyl}amino]-N-[3-(1H-imidazol-1-yl)propyl]-1,3-thiazole-5-carboxamide] | < 5.00 | 7.61
26 | O=C(NCCCn1ccnc1)c1cnc(N(Cc2ccc(F)cc2)C(=O)CN2CCC3(C2)OCCO3)s1 [Example 43, 2-[(1,4-dioxa-7-azaspiro[4.4]non-7-ylacetyl)(4-fluorobenzyl)amino]-N-[3-(1H-imidazol-1-yl)propyl]-1,3-thiazole-5-carboxamide] | 5.09 | 9.15
